From ChEMBL document CHEMBL1155181, “Structure-based design of substituted biphenyl ethylene ethers as ligands binding in the hydrophobic pocket of gp41 and blocking the helical bundle formation” (Bioorg Med Chem Lett, 2009)

Key:
[1] = system: Human immunodeficiency virus; assay: Inhibition of HIV gp41 six-helix bundle formation at 25 uM by FRET-based assay relative to C18Aib
[2] = system: Human immunodeficiency virus; assay: Inhibition of HIV gp41 hexamer bundle formation at 50 uM after 30 mins by size exclusion chromatography assay
[3] = system: Human immunodeficiency virus; assay: Inhibition of HIV gp41 six-helix bundle formation at 25 uM by FRET-based assay relative to ADS--J1
[4] = Inhibition of HIV gp41 hexamer bundle formation after 30 mins by size exclusion chromatography assay; set-up: species or system Human immunodeficiency virus
[5] = Inhibition of HIV gp41 hexamer bundle formation by ELISA; set-up: species or system Human immunodeficiency virus
[6] = Inhibition of HIV gp41 hexamer bundle formation after 30 mins by SEC-HPLC assay; set-up: species or system Human immunodeficiency virus

| Compound | inhibition [1] | inhibition [2] | inhibition [3] | IC50 ([4]; read-out: IC50) | IC50 [5] | IC50 [6] | IC50 [4] |
| --- | --- | --- | --- | --- | --- | --- | --- |
| COC(=O)c1ccc(CCOc2cccc(-c3cccc(-c4nn[nH]n4)c3)c2)c2ccccc12 | 75% | 95% | 67% | 31 µM | – | – | – |
| O=S(=O)(c1ccccc1)n1ccc2c(CCOc3cccc(-c4cccc(-c5nnn[nH]5)c4)c3)cccc21 | – | 100% | – | 32.9 µM | – | – | – |
| O=C(O)c1ccc(-c2c3nc(c(-c4ccc(C(=O)O)cc4)c4ccc([nH]4)c(-c4ccc(C(=O)O)cc4)c4ccc([nH]4)c(-c4ccc(C(=O)O)cc4)c4nc2C=C4)C=C3)cc1 | – | – | – | – | 1 µM | 0.9 µM | – |
| CC(C)(C)OC(=O)n1ccc2c(CCOc3cccc(-c4cccc(-c5nnn[nH]5)c4)c3)cccc21 | – | 100% | – | – | – | – | Not Active |
